Laboratory results taken from ChEMBL document CHEMBL2440045, “The synthesis and anticancer activity of analogs of the indole phytoalexins brassinin, 1-methoxyspirobrassinol methyl ether and cyclobrassinin” (Bioorg Med Chem, 2013).

Assays:
Assay type in all cases: functional, cell-based
A549 = assay: Antiproliferative activity against human A549 cells assessed as cell viability after 72 hrs by MTT assay; conditions: A549, 72 h
HeLa = assay: Antiproliferative activity against human HeLa cells assessed as cell viability after 72 hrs by MTT assay
CCRF-CEM = assay: Antiproliferative activity against human CCRF-CEM cells assessed as cell viability after 72 hrs by MTT assay
MDA-MB-231 = assay: Antiproliferative activity against human MDA-MB-231 cells assessed as cell viability after 72 hrs by MTT assay; conditions: MDA-MB-231, 72 h
Jurkat = assay: Antiproliferative activity against human Jurkat cells assessed as cell viability after 72 hrs by MTT assay
MCF7 = assay: Antiproliferative activity against human MCF7 cells assessed as cell viability after 72 hrs by MTT assay; conditions: MCF7, 72 h

| SMILES | IC50 (A549) [µM] | IC50 (HeLa) [µM] | IC50 (CCRF-CEM) [µM] | IC50 (MDA-MB-231) [µM] | IC50 (Jurkat) [µM] | IC50 (MCF7) [µM] |
| --- | --- | --- | --- | --- | --- | --- |
| c1ccc2c3c([nH]c2c1)SC(N1CCOCC1)=NC3 | 62.9 | 72.5 | 5.9 | 33.1 | 8.7 | 55.1 |
| CN(C1=NCc2c([nH]c3ccccc23)S1)c1ccccc1 | 91.5 | 71.7 | 28 | 42.4 | 75.5 | 95 |
| CNC1=NCc2c([nH]c3ccccc23)S1 | 43.4 | 67.2 | 4.7 | 34.3 | 5.2 | 43.2 |
| c1ccc2c3c([nH]c2c1)SC(NC1CCCCC1)=NC3 | 55.3 | 65 | 3.9 | 30.9 | 5.2 | 64.3 |
| c1ccc2c3c([nH]c2c1)SC(N1CCCCC1)=NC3 | 42.2 | 40.7 | 6.6 | 35.5 | 7.3 | 37.1 |
| CSC(=S)NCc1cn(C(=O)OC(C)(C)C)c2ccccc12 | 21.4 | 16.9 | 19.6 | 21.4 | 17.8 | 23 |
| CC(C)(C)OC(=O)n1cc(CNC(=S)Nc2ccccc2)c2ccccc21 | 6.6 | 20.4 | 90.7 | 28 | 3.1 | 0.72 |
| CC(C)(C)OC(=O)n1cc(CNC(=S)Nc2ccc(Br)cc2)c2ccccc21 | 6.8 | 4.5 | 3.8 | 13 | 4.3 | 8.5 |
| CC(C)(C)OC(=O)n1cc(CNC(=S)Nc2ccc(F)cc2)c2ccccc21 | 24.3 | 10.7 | 12 | 22.2 | 19.8 | 27.6 |
| CC(C)(C)OC(=O)n1cc(CNC(=S)Nc2ccc(Cl)cc2)c2ccccc21 | 7.6 | 4 | 3.8 | 17.1 | 4.2 | 8.6 |
| COc1ccc(NC(=S)NCc2cn(C(=O)OC(C)(C)C)c3ccccc23)cc1 | > 100 | 34 | 22 | > 100 | 30 | 92 |
| Cc1ccc(NC(=S)NCc2cn(C(=O)OC(C)(C)C)c3ccccc23)cc1 | 31.3 | 29 | 16 | 37.4 | 20 | 30 |
| CC(C)(C)OC(=O)n1cc(CNC(=S)Nc2ccc([N+](=O)[O-])cc2)c2ccccc21 | 11.5 | 14 | 3.8 | 8.6 | 3 | 9.3 |
| CC(C)(C)OC(=O)n1cc(CNC(=S)Nc2ccc(C(F)(F)F)cc2)c2ccccc21 | 4 | 4 | 3.5 | 4.5 | 3 | 3.5 |
| CC(C)(C)OC(=O)n1cc(CNC(=S)Nc2cc(C(F)(F)F)cc(C(F)(F)F)c2)c2ccccc21 | 3.6 | 6.6 | 2.9 | 4.1 | 3.6 | 3.5 |
| CN(C(=S)NCc1cn(C(=O)OC(C)(C)C)c2ccccc12)c1ccccc1 | > 100 | > 100 | > 100 | > 100 | > 100 | > 100 |
| CNC(=S)NCc1cn(C(=O)OC(C)(C)C)c2ccccc12 | > 100 | > 100 | > 100 | > 100 | > 100 | > 100 |
| CC(C)(C)OC(=O)n1cc(CNC(=S)NC2CCCCC2)c2ccccc21 | 33.5 | 8 | 7 | 37.5 | 11 | 21.5 |
| CC(C)(C)OC(=O)n1cc(CNC(=S)N2CCCCC2)c2ccccc21 | 60.1 | 36.8 | 37 | > 100 | 37.6 | > 100 |
| CC(C)(C)OC(=O)n1cc(CNC(=S)N2CCOCC2)c2ccccc21 | > 100 | 80 | > 100 | > 100 | 95.8 | > 100 |
| CO[C@H]1N(C(=O)OC(C)(C)C)c2ccccc2[C@@]12CN=C(Nc1ccc(C)cc1)S2 (racemic) | 31.4 | 20.2 | 14.4 | 35.6 | 25.7 | 32.9 |
| CO[C@@H]1N(C(=O)OC(C)(C)C)c2ccccc2[C@@]12CN=C(Nc1ccc(C)cc1)S2 (racemic) | 30.5 | 23 | 19 | 35.5 | 9 | 31.5 |

| SMILES | IC50 (A549) [µM] | IC50 (HeLa) [µM] | IC50 (CCRF-CEM) [µM] | IC50 (MDA-MB-231) [µM] | IC50 (Jurkat) [µM] | IC50 (MCF7) [µM] |
| --- | --- | --- | --- | --- | --- | --- |
| CO[C@H]1N(C(=O)OC(C)(C)C)c2ccccc2[C@@]12CN=C(Nc1ccc([N+](=O)[O-])cc1)S2 (racemic) | 33 | 31.3 | 18.4 | 37.5 | 20.2 | 33 |
| CO[C@H]1N(C(=O)OC(C)(C)C)c2ccccc2[C@@]12CN=C(Nc1ccc(C(F)(F)F)cc1)S2 (racemic) | 24.6 | 32.7 | 7.2 | 28.6 | 9.3 | 26.5 |
| CO[C@@H]1N(C(=O)OC(C)(C)C)c2ccccc2[C@@]12CN=C(Nc1ccc(C(F)(F)F)cc1)S2 (racemic) | 17.9 | 11.3 | 6.7 | 21.3 | 5.6 | 11.1 |
| CO[C@@H]1N(C(=O)OC(C)(C)C)c2ccccc2[C@@]12CN=C(Nc1cc(C(F)(F)F)cc(C(F)(F)F)c1)S2 (racemic) | 29 | 34.2 | 17.2 | 38.6 | 21.5 | 20.9 |
| CO[C@H]1N(C(=O)OC(C)(C)C)c2ccccc2[C@@]12CN=C(N(C)c1ccccc1)S2 (racemic) | – | 8.2 | 18.3 | 31.7 | 5.9 | 1.5 |
| CO[C@@H]1N(C(=O)OC(C)(C)C)c2ccccc2[C@@]12CN=C(N(C)c1ccccc1)S2 (racemic) | 28.7 | 32 | 26.6 | 27.5 | 26 | 28 |
| CNC1=NC[C@]2(S1)c1ccccc1N(C(=O)OC(C)(C)C)[C@@H]2OC (racemic) | > 100 | > 100 | 44.4 | > 100 | 83.4 | > 100 |
| CNC1=NC[C@]2(S1)c1ccccc1N(C(=O)OC(C)(C)C)[C@H]2OC (racemic) | > 100 | > 100 | 53 | > 100 | 42 | > 100 |
| CO[C@H]1N(C(=O)OC(C)(C)C)c2ccccc2[C@@]12CN=C(NC1CCCCC1)S2 (racemic) | 27.7 | 32 | 5.1 | 26.1 | 5.2 | 27.5 |
| CO[C@@H]1N(C(=O)OC(C)(C)C)c2ccccc2[C@@]12CN=C(NC1CCCCC1)S2 (racemic) | 38 | 36.7 | 29.1 | 41.4 | 27 | 37.2 |
| CO[C@H]1N(C(=O)OC(C)(C)C)c2ccccc2[C@@]12CN=C(N1CCCCC1)S2 (racemic) | 54.2 | 54.9 | 26.1 | 61.3 | 24.9 | 52.6 |
| CO[C@@H]1N(C(=O)OC(C)(C)C)c2ccccc2[C@@]12CN=C(N1CCCCC1)S2 (racemic) | 55.4 | 62.3 | 30.7 | 69 | 33.1 | 64.4 |
| CO[C@H]1N(C(=O)OC(C)(C)C)c2ccccc2[C@@]12CN=C(N1CCOCC1)S2 (racemic) | > 100 | 55.5 | 51.4 | 69.3 | 31.3 | 70.1 |
| CO[C@@H]1N(C(=O)OC(C)(C)C)c2ccccc2[C@@]12CN=C(N1CCOCC1)S2 (racemic) | > 100 | 76 | 35.9 | > 100 | 34.5 | 69.5 |
| CON1c2ccccc2C2(CN=C(SC)S2)C1O (racemic) | 100 | 100 | 100 | 100 | 100 | 100 |
| CSC1=NC[C@]2(S1)c1ccccc1N(C(=O)OC(C)(C)C)[C@@H]2O (racemic) | 100 | 78 | 30.6 | 82.8 | 34 | 100 |
| CSC1=NC[C@]2(S1)c1ccccc1N(C(=O)OC(C)(C)C)[C@H]2O (racemic) | 100 | 93.6 | 27.1 | 95 | 29.8 | 100 |
| CC(C)(C)OC(=O)N1c2ccccc2[C@@]2(CN=C(Nc3ccccc3)S2)[C@H]1O (racemic) | 74 | 72.4 | 33 | 64 | 47.7 | 27.4 |
| CN(C1=NC[C@]2(S1)c1ccccc1N(C(=O)OC(C)(C)C)[C@@H]2O)c1ccccc1 (racemic) | > 100 | > 100 | 64.3 | > 100 | 5.3 | 2.7 |
| CN(C1=NC[C@]2(S1)c1ccccc1N(C(=O)OC(C)(C)C)[C@H]2O)c1ccccc1 (racemic) | 28.7 | 22.3 | 22.8 | 32.4 | 21.6 | 30.3 |
| CO[C@@H]1N(OC)c2ccccc2[C@@]12CN=C(SC)S2 (racemic) | – | – | – | – | 44 | 65 |
